# Article PMC4234429 (Journal of Medicinal Chemistry, 2014)
# Bridge positions count the residues as written; N and C are the ends. Square brackets hold non-standard residues; d marks the D form. Peptide text beside a SMILES is read from it. Nle = CCCC[C@H](N)C(=O)O; βAla = NCCC(=O)O
# Assay: RP-HPLC capacity factor
# Format: physicochemical
# Settings: Grace Vydac C-18, 20 min gradient of 18–28% acetonitrile in 20 mM HCl, 1 mL/min
row,Compound,capacity factor (k′)
1,"CC(C)[C@H](NC(=O)[C@@H]1CCCN1C(=O)[C@H](CCCNC(=N)N)NC(=O)[C@H](CS)NC(=O)[C@H](Cc1c[nH]c2ccccc12)NC(=O)[C@H](CCCNC(=N)N)NC(=O)[C@@H](Cc1ccccc1)NC(=O)[C@H](Cc1c[nH]cn1)NC(=O)[C@H](CCC(=O)O)NC(=O)[C@H](CS)NC(=O)[C@H](CS)NC(=O)CCNC(=O)[C@@H]1CC(=O)N[C@@H](CCCNC(=N)N)C(=O)N[C@@H](C(C)C)C(=O)N[C@@H](CC(=O)O)C(=O)N[C@H](Cc2ccc(O)cc2)C(=O)N1)C(N)=O [peptide 3, RVD-β-Ala-(Arg^11)CCMSH] (RVD[dY]D[βAla]CCEH[dF]RWCRPV-NH2; lactam N-5)",1.94
2,"CCCC[C@@H]1NC(=O)C[C@@H](C(=O)NCCC(=O)N[C@@H](CS)C(=O)N[C@@H](CS)C(=O)N[C@@H](CCC(=O)O)C(=O)N[C@@H](Cc2c[nH]cn2)C(=O)N[C@H](Cc2ccccc2)C(=O)N[C@@H](CCCNC(=N)N)C(=O)N[C@@H](Cc2c[nH]c3ccccc23)C(=O)N[C@@H](CS)C(=O)N[C@@H](CCCNC(=N)N)C(=O)N2CCC[C@H]2C(=O)N[C@H](C(N)=O)C(C)C)NC(=O)[C@@H](Cc2ccc(O)cc2)NC(=O)[C@H](CC(=O)O)NC(=O)[C@H](C)NC1=O [peptide 5, NAD-β-Ala-(Arg^11)CCMSH] ([Nle]AD[dY]D[βAla]CCEH[dF]RWCRPV-NH2; lactam N-5)",3.17
3,"CC(C)[C@H](NC(=O)[C@@H]1CCCN1C(=O)[C@H](CCCNC(=N)N)NC(=O)[C@H](CS)NC(=O)[C@H](Cc1c[nH]c2ccccc12)NC(=O)[C@H](CCCNC(=N)N)NC(=O)[C@@H](Cc1ccccc1)NC(=O)[C@H](Cc1c[nH]cn1)NC(=O)[C@H](CCC(=O)O)NC(=O)[C@H](CS)NC(=O)[C@H](CS)NC(=O)CCNC(=O)[C@@H]1CC(=O)N[C@@H](CCC(=O)O)C(=O)N[C@@H](C)C(=O)N[C@@H](CC(=O)O)C(=O)N[C@H](Cc2ccc(O)cc2)C(=O)N1)C(N)=O [peptide 6, EAD-β-Ala-(Arg^11)CCMSH] (EAD[dY]D[βAla]CCEH[dF]RWCRPV-NH2; lactam N-5)",2.28

# More lines, now with the values ahead:
row,capacity factor (k′),Compound
1,1.35,"CC(C)[C@H](NC(=O)[C@@H]1CCCN1C(=O)[C@H](CCCNC(=N)N)NC(=O)[C@H](CS)NC(=O)[C@H](Cc1c[nH]c2ccccc12)NC(=O)[C@H](CCCNC(=N)N)NC(=O)[C@@H](Cc1ccccc1)NC(=O)[C@H](Cc1c[nH]cn1)NC(=O)[C@H](CCC(=O)O)NC(=O)[C@H](CS)NC(=O)[C@H](CS)NC(=O)CCNC(=O)[C@@H]1CC(=O)N[C@@H](CCCNC(=N)N)C(=O)N[C@@H](CO)C(=O)N[C@@H](CC(=O)O)C(=O)N[C@H](Cc2ccc(O)cc2)C(=O)N1)C(N)=O [peptide 1, RSD-β-Ala-(Arg^11)CCMSH] (RSD[dY]D[βAla]CCEH[dF]RWCRPV-NH2; lactam N-5)"
2,0.98,"CC(C)[C@H](NC(=O)[C@@H]1CCCN1C(=O)[C@H](CCCNC(=N)N)NC(=O)[C@H](CS)NC(=O)[C@H](Cc1c[nH]c2ccccc12)NC(=O)[C@H](CCCNC(=N)N)NC(=O)[C@@H](Cc1ccccc1)NC(=O)[C@H](Cc1c[nH]cn1)NC(=O)[C@H](CCC(=O)O)NC(=O)[C@H](CS)NC(=O)[C@H](CS)NC(=O)CCNC(=O)[C@@H]1CC(=O)N[C@@H](CCCNC(=N)N)C(=O)N[C@@H]([C@@H](C)O)C(=O)N[C@@H](CC(=O)O)C(=O)N[C@H](Cc2ccc(O)cc2)C(=O)N1)C(N)=O [peptide 2, RTD-β-Ala-(Arg^11)CCMSH] (RTD[dY]D[βAla]CCEH[dF]RWCRPV-NH2; lactam N-5)"
3,3.32,"CC(C)[C@H](NC(=O)[C@@H]1CCCN1C(=O)[C@H](CCCNC(=N)N)NC(=O)[C@H](CS)NC(=O)[C@H](Cc1c[nH]c2ccccc12)NC(=O)[C@H](CCCNC(=N)N)NC(=O)[C@@H](Cc1ccccc1)NC(=O)[C@H](Cc1c[nH]cn1)NC(=O)[C@H](CCC(=O)O)NC(=O)[C@H](CS)NC(=O)[C@H](CS)NC(=O)CCNC(=O)[C@@H]1CC(=O)N[C@@H](CCCNC(=N)N)C(=O)N[C@@H](C)C(=O)N[C@@H](CC(=O)O)C(=O)N[C@H](Cc2ccc(O)cc2)C(=O)N1)C(N)=O [peptide 4, RAD-β-Ala-(Arg^11)CCMSH] (RAD[dY]D[βAla]CCEH[dF]RWCRPV-NH2; lactam N-5)"
